# Assay results reported in BindingDB's records for doi:10.1016/s0960-894x(98)00140-1 (University of Connecticut, 1998).
# Biological target: Pancreatic triacylglycerol lipase (Sus scrofa) (UniProt P00591)
# Assay: Compound was tested for inhibition of porcine pancreatic lipase
# Pancreatic triacylglycerol lipase (Sus scrofa), sequence (P00591 whole entry, looked up): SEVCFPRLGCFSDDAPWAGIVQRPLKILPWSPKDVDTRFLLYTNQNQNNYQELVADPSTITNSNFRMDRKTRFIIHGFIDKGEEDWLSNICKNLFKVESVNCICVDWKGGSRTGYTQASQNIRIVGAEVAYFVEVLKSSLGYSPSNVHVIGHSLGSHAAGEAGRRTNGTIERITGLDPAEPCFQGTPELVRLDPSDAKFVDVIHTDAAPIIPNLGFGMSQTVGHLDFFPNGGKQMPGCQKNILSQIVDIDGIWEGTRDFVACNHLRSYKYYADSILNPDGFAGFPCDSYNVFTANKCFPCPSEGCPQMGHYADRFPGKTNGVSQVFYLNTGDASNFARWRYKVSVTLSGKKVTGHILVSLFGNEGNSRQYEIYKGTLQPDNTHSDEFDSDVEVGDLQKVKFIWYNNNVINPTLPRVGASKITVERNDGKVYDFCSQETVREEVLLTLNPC
smiles,measurement,value
C=C1O[C@@H](C[C@H](CCCCCCCCCCC)OC(=O)[C@H](CC(C)C)NC=O)[C@@H]1CCCCCC,IC50,3.44 µM
